Measured values reported in patent US20100098670A1, “Autologous dental pulp stem cell-based bone graft substitute” (Cerapedics Inc., priority 2007, published 2010).
“Also recorded” adds a separate entry of the source. Ends that are not written are not given here.

Columns and labels:
[1] = tested on: human dental pulp explants; assay: Cell outgrowth from human dental pulp explants cultured with scaffolds (live/dead markers, confocal microscopy, SEM); format: cell-based; settings: fluorescence, confocal or SEM images
Description: (§1) The HDPSCs were isolated from human dental pulp tissues and cultured on ABM and ABM-P-15 scaffolds in media. The cultured cells on the scaffolds were analysed by live/dead fluorescent markers, histological staining (ALP, Alizalin Red, Toluidine blue), confocal microscopy and scanning electron microscopy. The effect of P-15 on HDPSCs BMP-2 production was confirmed by a well developed promyoblast induction assay via co-culturing of C2C12 promyoblasts and HDPSCs on ABM or ABM-P-15. […] Cell outgrowth from the explants was assessed by live/dead fluorescent markers, histological staining (ALP), confocal microscope and scanning electron microscopy.
Teeth were obtained with patients' informed consent following project approval by the NHS local ethical committee (COREC: 06/Q1206/165). Human dental pulp was extracted from sound intact teeth, which had been surgically removed at the Leeds Dental Institute for clinical reasons. Each tooth was washed within a Class II hood and cracked in a bench vice. The dental pulp tissues were harvested and washed with 1×PBS and minced into small pieces (1×2×2 mm^3) which were kept in the PBS and ready for use.
PepGen P-15 (ABM-P15) and/or Osteo-Graf/N-300 (ABM alone) were provided by Cerapedics Inc. (Lakewood, Colo.) in a particulate form. 50 mg of ABM-P-15 and ABM alone were transferred into the 48 well plates and sterilized under UV radiation for 30 minutes. […]

HDPSCs = assay: ALP and toluidine blue staining of HDPSCs cultured on scaffolds; format: cell-based, human; settings: isolated HDPSCs on scaffolds
Description: as §1

## GTPGPQGIAGQRGVV [P-15, collagen mimetic, 15 amino acid residues of the α1(I) chain of collagen]
[1]; 50 mg scaffold, basal media
  outgrowth of HDPSCs from dental pulp explants: enhanced the outgrowth
[1]; explant culture
  cell bridge formation between adjacent scaffold particles: promoted cell bridge formation
HDPSCs
  HDPSCs differentiation along the osteogenic lineage (ALP expression): promoted the HDPSCs differentiation along the osteogenic lineage; also recorded: promoted HDPSCs differentiation along the osteogenic lineage
